# According to ChEMBL document CHEMBL2057146, “Improvement by sodium dl-α-tocopheryl-6-O-phosphate treatment of moisture-retaining ability in stratum corneum through increased ceramide levels” (Bioorg Med Chem, 2012):
# Tests used:
# Mus musculus [1] = assay: Increase in ceramide content in hairless mouse skin at 1% v/v administered topically after 4 weeks relative to vehicle treated control; type: functional
# Mus musculus [2] = assay: Increase in ceramide content in hairless mouse skin at 1% w/v administered topically after 30 hrs relative to vehicle treated control; type: functional
# Homo sapiens [3] = assay: Increase in ceramide content in human skin at 2% administered topically after 4 weeks relative to vehicle treated control; type: functional
# Keratinocyte [4] = assay: Increase in ceramide content in keratinocytes at […] after 24 hrs relative to vehicle treated control; type: functional
# Homo sapiens [5] = assay: Increase in ceramide content in human skin at 4% administered topically after 4 weeks relative to vehicle treated control; type: functional
# [6] = Upregulation of SPTLCB1 mRNA expression in neonatal human foreskin keratinocytes at 10 uM after 4 days relative to vehicle treated control; type: functional, cell-based; conditions: Keratinocyte
# Keratinocyte [7] = assay: Increase in ceramide content in normal human keratinocytes at 1 to 30 uM after 6 days relative to vehicle treated control; type: functional
# [8] = Upregulation of SPTLCB2 mRNA expression in neonatal human foreskin keratinocytes at 10 uM after 4 days relative to vehicle treated control; type: functional, cell-based; conditions: Keratinocyte
# Keratinocyte [9] = assay: Increase in ceramide content in keratinocytes at 1% after 6 days relative to vehicle treated control; type: functional
# Homo sapiens [10] = assay: Increase in ceramide content in human skin at 0.3 to 1% administered topically after 11 days relative to vehicle treated control; type: functional
structure (smiles),measurement,setting,value
CCO[C@H]1O[C@H](CO)[C@@H](O)[C@H](O)[C@H]1O,fold change (FC),Mus musculus [1],1.1
O=C1CCCCCCCCCCCC(=O)OCCO1,fold change (FC),Mus musculus [2],1.3
CC(O)C(=O)O (configuration not stated) [LACTIC ACID],fold change (FC),Homo sapiens [3],1.4
same,fold change (FC),Keratinocyte [4],4.3
same,fold change (FC),Homo sapiens [5],1.4
NC(=O)c1cccnc1 [NIACINAMIDE],fold change (FC),[6],1.8
same,fold change (FC),Homo sapiens [3],1.4
same,fold change (FC),Homo sapiens [5],1.4
same,fold change (FC),Keratinocyte [7],4.1
same,fold change (FC),[8],1.8
C[C@H]1[C@H](C)CC[C@]2(C(=O)O)CC[C@]3(C)C(=CC[C@@H]4[C@@]5(C)CC[C@H](O)C(C)(C)[C@@H]5CC[C@]43C)[C@H]12 [URSOLIC ACID],fold change (FC),Keratinocyte [9],2.2
same,fold change (FC),Homo sapiens [10],1.3
